Source: publication PMC7392148 (Bioorganic & medicinal chemistry, 2020)
One block for each molecule: values may come before it.

Assays:
[1] = system: panel of 168 GPCRs; test: PathHunter β-arrestin cell-based assays, antagonist primary screen; details: for antagonistic activity in the primary screen: 20 μM, significant = ≥80% inhibition; for hit rate: from the 168 GPCRs tested; for number of GPCRs antagonized at ≥80% inhibition: primary screen at 20 μM
[2] = target: T1, chemokine receptor CCR3 (Homo sapiens, UniProt P51677); test: PathHunter β-arrestin antagonist assay; format: cell-based
T1 sequence (P51677 1-355): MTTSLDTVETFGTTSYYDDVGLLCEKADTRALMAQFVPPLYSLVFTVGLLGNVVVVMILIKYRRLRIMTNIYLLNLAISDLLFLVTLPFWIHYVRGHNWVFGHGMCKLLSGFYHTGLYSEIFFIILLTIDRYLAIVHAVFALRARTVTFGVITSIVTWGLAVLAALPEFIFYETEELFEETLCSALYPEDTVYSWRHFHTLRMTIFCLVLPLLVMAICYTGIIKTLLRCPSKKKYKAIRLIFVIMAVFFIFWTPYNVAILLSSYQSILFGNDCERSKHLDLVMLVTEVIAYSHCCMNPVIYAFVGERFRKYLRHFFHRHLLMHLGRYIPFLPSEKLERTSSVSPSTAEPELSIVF

[3] = target: CXCR4 (Homo sapiens, UniProt P61073); test: PathHunter β-arrestin antagonist assay; format: cell-based
CXCR4, sequence (P61073 whole entry): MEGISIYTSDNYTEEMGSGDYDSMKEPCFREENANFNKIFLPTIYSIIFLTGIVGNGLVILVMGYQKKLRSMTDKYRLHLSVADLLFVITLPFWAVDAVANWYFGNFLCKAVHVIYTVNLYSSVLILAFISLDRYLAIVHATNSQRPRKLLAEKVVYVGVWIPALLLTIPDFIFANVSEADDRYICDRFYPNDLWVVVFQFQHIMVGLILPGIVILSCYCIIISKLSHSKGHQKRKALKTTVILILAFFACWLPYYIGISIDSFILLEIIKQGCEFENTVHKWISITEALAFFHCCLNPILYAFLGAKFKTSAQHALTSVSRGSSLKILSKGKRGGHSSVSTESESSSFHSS

[4] = target: T2, 5-hydroxytryptamine (serotonin) receptor (HTR2C) (Homo sapiens, UniProt P28335); test: PathHunter β-arrestin antagonist assay; format: cell-based
T2 sequence (P28335 33-458): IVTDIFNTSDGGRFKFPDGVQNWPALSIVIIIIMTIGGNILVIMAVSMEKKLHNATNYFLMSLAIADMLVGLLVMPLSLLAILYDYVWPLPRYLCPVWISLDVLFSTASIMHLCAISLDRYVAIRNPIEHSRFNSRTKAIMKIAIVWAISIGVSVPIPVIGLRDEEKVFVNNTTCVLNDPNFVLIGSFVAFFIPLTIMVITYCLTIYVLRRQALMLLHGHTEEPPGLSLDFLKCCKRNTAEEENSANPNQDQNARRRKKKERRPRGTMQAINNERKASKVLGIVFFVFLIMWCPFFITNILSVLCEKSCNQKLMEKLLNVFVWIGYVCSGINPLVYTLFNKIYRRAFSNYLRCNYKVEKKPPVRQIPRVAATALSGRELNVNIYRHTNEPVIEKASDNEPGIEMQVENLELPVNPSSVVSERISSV

[5] = target: chemokine receptor CCR8 (Homo sapiens, UniProt P51685); test: PathHunter β-arrestin antagonist assay; format: cell-based
chemokine receptor CCR8, sequence (P51685 whole entry): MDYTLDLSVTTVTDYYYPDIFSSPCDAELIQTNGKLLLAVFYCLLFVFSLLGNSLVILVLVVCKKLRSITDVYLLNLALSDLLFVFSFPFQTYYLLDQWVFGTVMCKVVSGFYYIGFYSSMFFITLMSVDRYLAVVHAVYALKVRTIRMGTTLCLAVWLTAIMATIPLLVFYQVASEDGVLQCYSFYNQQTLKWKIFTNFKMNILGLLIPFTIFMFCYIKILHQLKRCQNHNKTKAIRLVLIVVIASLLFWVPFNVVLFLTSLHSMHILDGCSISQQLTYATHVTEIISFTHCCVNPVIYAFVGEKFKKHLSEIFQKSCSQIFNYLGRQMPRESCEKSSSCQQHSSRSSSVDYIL

[6] = target: T3, CX3CR1 (Homo sapiens, UniProt P49238); test: PathHunter β-arrestin antagonist assay; format: cell-based
T3 sequence (P49238 1-355): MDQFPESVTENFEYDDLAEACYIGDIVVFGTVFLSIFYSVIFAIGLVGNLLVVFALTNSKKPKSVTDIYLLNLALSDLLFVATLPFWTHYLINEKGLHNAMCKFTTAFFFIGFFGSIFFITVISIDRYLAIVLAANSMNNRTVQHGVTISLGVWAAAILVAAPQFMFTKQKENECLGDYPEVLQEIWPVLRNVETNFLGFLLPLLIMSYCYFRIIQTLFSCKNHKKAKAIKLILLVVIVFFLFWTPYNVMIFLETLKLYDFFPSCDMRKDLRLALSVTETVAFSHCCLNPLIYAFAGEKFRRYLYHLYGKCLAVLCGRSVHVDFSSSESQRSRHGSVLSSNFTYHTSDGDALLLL

[7] = target: T4, neuropeptide S receptor 1 (NPSR1B) (Homo sapiens, UniProt Q6W5P4); test: PathHunter β-arrestin antagonist assay; format: cell-based
T4 sequence (Q6W5P4 1-377 isoform Q6W5P4-4): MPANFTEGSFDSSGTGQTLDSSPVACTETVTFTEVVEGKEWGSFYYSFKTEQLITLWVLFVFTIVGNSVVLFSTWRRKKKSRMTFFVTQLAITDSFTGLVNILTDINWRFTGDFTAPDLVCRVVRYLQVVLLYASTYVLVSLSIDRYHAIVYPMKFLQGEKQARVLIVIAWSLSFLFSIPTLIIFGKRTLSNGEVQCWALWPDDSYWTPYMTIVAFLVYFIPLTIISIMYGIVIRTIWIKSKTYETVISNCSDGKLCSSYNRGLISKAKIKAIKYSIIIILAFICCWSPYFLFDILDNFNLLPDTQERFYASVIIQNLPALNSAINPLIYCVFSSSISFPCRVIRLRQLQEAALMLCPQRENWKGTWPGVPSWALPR

[8] = target: T5, follicle-stimulating hormone receptor (FSHR) (Homo sapiens, UniProt P23945); test: PathHunter β-arrestin antagonist assay; format: cell-based
T5 sequence (P23945 18-695): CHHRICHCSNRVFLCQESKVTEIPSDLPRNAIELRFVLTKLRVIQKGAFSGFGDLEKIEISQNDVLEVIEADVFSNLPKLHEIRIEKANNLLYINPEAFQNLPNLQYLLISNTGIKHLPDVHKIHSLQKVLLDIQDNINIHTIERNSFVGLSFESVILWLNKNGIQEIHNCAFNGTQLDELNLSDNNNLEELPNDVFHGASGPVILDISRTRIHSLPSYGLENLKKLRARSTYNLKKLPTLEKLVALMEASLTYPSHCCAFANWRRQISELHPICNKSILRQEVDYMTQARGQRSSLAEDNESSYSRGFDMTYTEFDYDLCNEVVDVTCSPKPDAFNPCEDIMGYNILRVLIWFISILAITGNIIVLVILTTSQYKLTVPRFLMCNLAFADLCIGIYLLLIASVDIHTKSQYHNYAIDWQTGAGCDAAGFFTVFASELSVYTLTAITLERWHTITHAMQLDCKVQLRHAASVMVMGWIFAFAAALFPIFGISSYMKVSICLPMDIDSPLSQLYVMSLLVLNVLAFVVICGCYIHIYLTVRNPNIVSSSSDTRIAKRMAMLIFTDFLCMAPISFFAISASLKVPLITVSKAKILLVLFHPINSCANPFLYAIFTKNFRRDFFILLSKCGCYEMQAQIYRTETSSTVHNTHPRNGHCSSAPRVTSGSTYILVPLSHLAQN

[9] = target: T6, prolactin releasing hormone receptor (PRLHR) (Homo sapiens, UniProt P49683); test: PathHunter β-arrestin antagonist assay; format: cell-based
T6 sequence (P49683 1-370): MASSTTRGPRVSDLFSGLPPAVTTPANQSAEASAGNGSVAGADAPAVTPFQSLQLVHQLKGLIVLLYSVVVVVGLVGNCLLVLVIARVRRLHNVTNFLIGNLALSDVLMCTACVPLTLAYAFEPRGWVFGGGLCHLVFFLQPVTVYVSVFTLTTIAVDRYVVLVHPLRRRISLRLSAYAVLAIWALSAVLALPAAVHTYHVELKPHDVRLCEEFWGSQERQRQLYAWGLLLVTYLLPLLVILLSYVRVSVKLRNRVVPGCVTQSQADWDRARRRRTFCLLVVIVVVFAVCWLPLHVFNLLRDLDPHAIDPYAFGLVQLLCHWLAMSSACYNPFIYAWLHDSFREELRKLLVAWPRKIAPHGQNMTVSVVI

[10] = system: dopamine D2b receptor (DRD2L); test: PathHunter β-arrestin antagonist assay; format: cell-based; details: primary screen at 20 μM
[11] = system: ADRA2A; test: PathHunter β-arrestin antagonist assay; format: cell-based; details: primary screen at 20 μM
[12] = system: AVPR1B; test: PathHunter β-arrestin antagonist assay; format: cell-based; details: primary screen at 20 μM
[13] = system: AVPR1A; test: PathHunter β-arrestin antagonist assay; format: cell-based; details: primary screen at 20 μM
[14] = system: hydroxytryptamine receptor (HTR1B); test: PathHunter β-arrestin antagonist assay; format: cell-based; details: primary screen at 20 μM
[15] = target: T7, oxytocin receptor (OXTR) (Homo sapiens, UniProt P30559); test: PathHunter β-arrestin antagonist assay; format: cell-based
T7 sequence (P30559 1-389): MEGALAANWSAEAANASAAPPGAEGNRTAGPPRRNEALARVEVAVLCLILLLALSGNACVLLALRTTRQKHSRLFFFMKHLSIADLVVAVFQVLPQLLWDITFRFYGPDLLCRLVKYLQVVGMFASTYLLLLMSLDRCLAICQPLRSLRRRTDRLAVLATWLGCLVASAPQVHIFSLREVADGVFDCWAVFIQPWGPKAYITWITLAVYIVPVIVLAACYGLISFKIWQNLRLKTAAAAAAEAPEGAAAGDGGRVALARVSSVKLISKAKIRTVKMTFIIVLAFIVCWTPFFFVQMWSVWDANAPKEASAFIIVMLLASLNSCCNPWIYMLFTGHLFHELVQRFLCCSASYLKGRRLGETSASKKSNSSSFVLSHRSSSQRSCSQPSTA

[16] = target: AVPR2 (Homo sapiens, UniProt P30518); test: PathHunter β-arrestin antagonist assay; format: cell-based
AVPR2, sequence (P30518 whole entry): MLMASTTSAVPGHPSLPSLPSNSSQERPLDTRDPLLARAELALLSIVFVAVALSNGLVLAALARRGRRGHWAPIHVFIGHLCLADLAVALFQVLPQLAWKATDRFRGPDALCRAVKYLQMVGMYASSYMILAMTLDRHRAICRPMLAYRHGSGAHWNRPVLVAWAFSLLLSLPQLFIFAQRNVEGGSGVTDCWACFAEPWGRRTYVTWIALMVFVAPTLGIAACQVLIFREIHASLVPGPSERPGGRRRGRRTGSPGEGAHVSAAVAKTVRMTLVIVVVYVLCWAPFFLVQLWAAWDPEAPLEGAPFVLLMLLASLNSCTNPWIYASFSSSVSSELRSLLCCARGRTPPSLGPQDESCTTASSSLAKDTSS

Compound: COC(=O)[C@@H]1[C@H]2C[C@H]3OCc4ccccc4-n4c3c(c3ccccc34)CCN(C#N)C[C@@H]2CC[C@@H]1O [Y5a]
antagonistic activity in the primary screen [1]: inactive

Compound: COC(=O)[C@@H]1[C@H]2C[C@@H]([C@@]3(CCn4cc(CCCCO)nn4)C(=O)Nc4ccccc43)N(C#N)C[C@@H]2CC[C@@H]1O [Y2e]
antagonistic activity in the primary screen [1]: inactive

Compound: COC(=O)[C@@H]1[C@H]2C[C@@H]3N(CC[C@@]34C(=O)N(c3cncc(OC)n3)c3ccccc34)C[C@@H]2CC[C@@H]1O [Y3h]
antagonistic activity in the primary screen [1]: inactive

inhibition at 20 µM [2]: ≥ 80% | inhibition at 20 µM [3]: ≥ 80% | inhibition at 20 µM [4]: ≥ 80% | inhibition at 20 µM [5]: ≥ 80% | inhibition at 20 µM [6]: ≥ 80%
Compound: COC(=O)[C@@H]1[C@H]2C[C@@H](c3[nH]c4ccccc4c3CCn3cc(-c4cccc(Cl)c4)nn3)N(C#N)C[C@@H]2CC[C@@H]1O [Y1f]
antagonistic activity in the primary screen [1]: significant inhibitory activities | hit rate [1]: 3.0% | number of GPCRs antagonized at ≥80% inhibition [1]: five

Compound: COC(=O)[C@@H]1[C@H]2C[C@@H]3OCc4ccccc4-n4c3c(c3ccccc34)CCN(C#N)C[C@@H]2CC[C@@H]1O [Y4a]
antagonistic activity in the primary screen [1]: inactive

inhibition at 20 µM [7]: ≥ 80% | inhibition at 20 µM [8]: ≥ 80% | inhibition at 20 µM [9]: ≥ 80%
Compound: COC(=O)[C@@H]1[C@H]2C[C@@H](OCc3ccc(Br)cc3)c3[nH]c4ccccc4c3CCN(C#N)C[C@@H]2CC[C@@H]1O [Y6p]
antagonistic activity in the primary screen [1]: significant inhibitory activities | hit rate [1]: 2.4% | number of GPCRs antagonized at ≥80% inhibition [1]: four

Compound: COC(=O)[C@@H]1[C@H]2C[C@@H]3N(CC[C@@]34C(=O)N(Cc3cccc(OC)c3)c3ccccc34)C[C@@H]2CC[C@@H]1OCc1cccc(OC)c1 [Y7g]
antagonistic activity in the GPCR screen [10]: not inhibited | antagonistic activity in the GPCR screen [11]: not inhibited | antagonistic activity in the GPCR screen [12]: inhibited | antagonistic activity in the primary screen [1]: significant inhibitory activities | hit rate [1]: 2.4% | antagonistic activity in the GPCR screen [13]: inhibited | antagonistic activity in the GPCR screen [14]: not inhibited

Compound: COC(=O)[C@@H]1[C@H]2C[C@H]3c4[nH]c5ccccc5c4CCN3C[C@@H]2CC[C@@H]1O [yohimbine, reference compound]
antagonistic activity in the GPCR screen [10]: inhibited | inhibition at 20 µM [15]: ≤ 5% | inhibition at 20 µM [16]: ≤ 5% | antagonistic activity in the GPCR screen [14]: inhibited
